Reference: patent US8748436B2, “Carboxylic acid derivatives having a 2,5,7-substituted oxazolopyrimidine ring” (Sanofi, priority 2010, dated 2014)

These compounds were tested against T1, human Edg-1 receptor (Homo sapiens, UniProt P21453) (assay: GTP-γ-S assay using human Edg-1 receptors (scintillation proximity assay, CHO Flp-In cell membrane preparation)). Conditions: test compound at 10 μM; high control 10 μM S1P regarded as 100% activation; [35S]GTP-γ-S binding, triplicate; read-out: % Activation (Edg-1 receptor activation in percent of the activation by 10 μM S1P).
T1 construct: FLAG (N); expressed in transfected cells; membrane preparation
Type: biochemical
Excerpt: A) GTP-γ-S Assay Using Human Edg-1 Receptors
In order to determine the Edg-1 receptor activation by the compounds of the invention, a GTP-γ-S (guanosine 5′-[thio]triphosphate) assay for G-protein coupled receptor binding based on the scintillation proximity assay principle was used, employing a cell membrane preparation from a CHO Flp-In cell line which constitutively overexpresses the human Edg-1 receptor.
The Flp-In™ expression system (Invitrogen, cat. no. K6010-01) allows the generation of stable mammalian cell lines into which the gene of interest has been integrated through homologous recombination at a specific genomic location called Flp Recombination Target (FRT) site by means of a Flp recombinase encoded by the pOG44 expression plasmid. The integration of the pcDNA5/FRT expression construct into the Flp-In host cell line genome results in the transcription of the gene of interest. The stably transfected cells become hygromycin-resistant.
One day prior to transfection, 200 000 Flp-In-CHO cells were seeded in Ham F-12 medium (Invitrogen, cat. no. 31765) supplemented with 10% fetal calf serum (FCS; Perbio Science, cat. no. SH30068.03) in a 6-well plate and incubated at 37° C./5% CO2 overnight. Using the FuGENE® 6 transfection reagent (Roche, cat. no. 11988387001), cells were cotransfected with the Flp recombinase expression plasmid pOG44 and a modified plasmid additionally containing the edg-1 gene (accession no. NM_001400) termed as pcDNA5-FRT-TO_nFLAG_DEST-EDG-1 with a 9:1 ratio. To obtain the modified pcDNA5-FRT-TO_nFLAG_DEST plasmid, the Invitrogen plasmid pcDNA5/FRT/TO (Invitrogen, cat. no. V6520-20) was adapted to the Gateway® (Invitrogen) cloning system by inserting a Gateway cassette containing attR recombination sites flanking a ccdB gene and a chloramphenicol-resistance gene (Gateway conversion system, Invitrogen, cat. no. 11828-029). In addition a FLAG tag epitope was added before the 5′ att recombination site to allow recombinant expression of N-terminally FLAG-tagged proteins.
For the transfection of one well, 1.08 μg of pOG44 and 0.12 μg of pcDNA5-FRT-TO_nFLAG_DEST-EDG-1 were mixed to 100 μl of serum-free Ham F-12 medium containing 6 μl of FuGENE® 6 transfection reagent. After 20 min of incubation, the transfection reagent/DNA complex was distributed dropwise on the cells. The cells were incubated for 24 h at 37° C. Then the cells from 3 wells were transferred to a T75 flask (Greiner Cellstar®, cat. no. 658175) containing Ham F-12 medium supplemented with 10% of FCS but without antibiotic and were incubated another 24 h. 48 h after transfection, the medium was replaced by selection medium (Ham F-12 supplemented with 10% of FCS and 300 μg/ml of hygromycin B (Invitrogen, cat. no. 10687-010)). The medium was exchanged every 2 to 3 days until a resistant population of cells had grown. […] After 2 weeks of selection, the cells were transferred into T175 flasks (Greiner Cellstar®, cat. no. 660175) and cultivated for batch production. Cells were harvested from the culture flasks by short treatment (2 to 5 min) with Accutase (PAA, cat. no. L11-007), resuspended in selection medium (see above) and centrifuged at 200×g for 5 min. The cells were resuspended in a mixture of 90% of FCS and 10% of dimethylsulfoxide and stored frozen in liquid nitrogen.
A membrane preparation was obtained by standard methods from the afore-described CHO Flp-In cell line constitutively overexpressing the human Edg-1 receptor. Briefly, the cryopreserved cells were taken in culture and grown until confluency in T175 cell culture flasks (Becton Dickinson, cat. no. 35 5001). […]

T1 sequence (P21453 whole entry): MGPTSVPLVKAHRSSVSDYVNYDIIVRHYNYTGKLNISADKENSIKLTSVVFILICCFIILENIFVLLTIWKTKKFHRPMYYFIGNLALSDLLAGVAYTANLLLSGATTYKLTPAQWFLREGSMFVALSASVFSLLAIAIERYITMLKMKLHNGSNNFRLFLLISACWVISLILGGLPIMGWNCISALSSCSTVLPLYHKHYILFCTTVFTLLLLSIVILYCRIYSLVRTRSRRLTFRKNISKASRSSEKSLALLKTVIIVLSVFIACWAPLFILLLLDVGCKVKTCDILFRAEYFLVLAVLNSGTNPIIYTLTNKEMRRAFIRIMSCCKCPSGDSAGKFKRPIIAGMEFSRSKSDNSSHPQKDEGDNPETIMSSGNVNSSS

SMILES | activation at 10 µM
CCCOc1nc(Oc2ccsn2)nc2oc(-c3cc(C)c(OCC(=O)O)c(C)c3)nc12 [Example 27, {4-[5-(isothiazol-3-yloxy)-7-propoxy-oxazolo[5,4-d]pyrimidin-2-yl]-2,6-dimethylphenoxy}-acetic acid] | 109%
CCCOc1nc(Oc2cccc(Cl)c2F)nc2oc(-c3cc(C)c(OCC(=O)O)c(C)c3)nc12 [Example 63, {4-[5-(3-chloro-2-fluorophenoxy)-7-propoxy-oxazolo[5,4-d]pyrimidin-2-yl]-2,6-dimethyl-phenoxy}-acetic acid] | 67%
CCCOc1nc(Oc2ccc(C)cc2F)nc2oc(-c3cc(C)c(OCC(=O)O)c(C)c3)nc12 [Example 44, {4-[5-(2-fluoro-4-methylphenoxy)-7-propoxy-oxazolo[5,4-d]pyrimidin-2-yl]-2,6-dimethylphenoxy}-acetic acid] | 43%
CCCOc1nc(Oc2cncc(Cl)c2)nc2oc(-c3cc(C)c(OCC(=O)O)c(C)c3)nc12 [Example 48, {4-[5-(5-chloropyridin-3-yloxy)-7-propoxy-oxazolo[5,4-d]pyrimidin-2-yl]-2,6-dimethyl-phenoxy}-acetic acid] | 115%
CCCOc1nc(Oc2cc(F)cc(Cl)c2)nc2oc(-c3cc(C)c(OCC(=O)O)c(C)c3)nc12 [Example 60, {4-[5-(3-chloro-5-fluorophenoxy)-7-propoxy-oxazolo[5,4-d]pyrimidin-2-yl]-2,6-dimethyl-phenoxy}-acetic acid] | 59%
CCCOc1nc(Oc2ccc3c(c2)CCC3)nc2oc(-c3cc(C)c(OCC(=O)O)c(C)c3)nc12 [Example 53, {4-[5-(indan-5-yloxy)-7-propoxy-oxazolo[5,4-d]pyrimidin-2-yl]-2,6-dimethylphenoxy}-acetic acid] | 55%
CCOc1nc(Oc2ccccc2F)nc2oc(-c3cc(C)c(OCC(=O)O)c(C)c3)nc12 [Example 26, {4-[7-ethoxy-5-(2-fluorophenoxy)-oxazolo[5,4-d]pyrimidin-2-yl]-2,6-dimethyl-phenoxy}-acetic acid] | 127%
CCCOc1nc(Oc2cc(C(F)(F)F)ccc2F)nc2oc(-c3cc(C)c(OCC(=O)O)c(C)c3)nc12 [Example 73, {4-[5-(2-fluoro-5-trifluoromethylphenoxy)-7-propoxy-oxazolo[5,4-d]pyrimidin-2-yl]-2,6-dimethylphenoxy}-acetic acid] | 59%
CCCOc1nc(OCC(C)C)nc2oc(-c3cc(C)c(OCC(=O)O)c(C)c3)nc12 [Example 12, [4-(5-isobutoxy-7-propoxy-oxazolo[5,4-d]pyrimidin-2-yl)-2,6-dimethyl-phenoxy]-acetic acid] | 97%
CCCOc1nc(Oc2cc(C)cc(F)c2)nc2oc(-c3cc(C)c(OCC(=O)O)c(C)c3)nc12 [Example 42, {4-[5-(3-fluoro-5-methylphenoxy)-7-propoxy-oxazolo[5,4-d]pyrimidin-2-yl]-2,6-dimethyl-phenoxy}-acetic acid] | 66%

Results, then the compound that gave them:

activation at 10 µM | SMILES
73% | CCCOc1nc(Oc2cccc(OC)c2)nc2oc(-c3cc(C)c(OCC(=O)O)c(C)c3)nc12 [Example 41, {4-[5-(3-methoxyphenoxy)-7-propoxy-oxazolo[5,4-d]pyrimidin-2-yl]-2,6-dimethylphenoxy}-acetic acid]
81% | CCCOc1nc(Oc2cccc(SC(F)(F)F)c2)nc2oc(-c3cc(C)c(OCC(=O)O)c(C)c3)nc12 [Example 76, {2,6-dimethyl-4-[7-propoxy-5-(3-trifluoromethylsulfanyl-phenoxy)-oxazolo[5,4-d]pyrimidin-2-yl]-phenoxy}-acetic acid]
84% | CCCOc1nc(Oc2ccccc2)nc2oc(-c3cc(C)c(OCC(=O)O)c(C)c3)nc12 [Example 9, [2,6-dimethyl-4-(5-phenoxy-7-propoxy-oxazolo[5,4-d]pyrimidin-2-yl)-phenoxy]-acetic acid]
55% | CCOc1nc(Oc2cccc(Cl)c2)nc2oc(-c3cc(C)c(OCC(=O)O)c(C)c3)nc12 [Example 38, {4-[5-(3-chlorophenoxy)-7-ethoxy-oxazolo[5,4-d]pyrimidin-2-yl]-2,6-dimethyl-phenoxy}-acetic acid]
